# Test results as given in PMC10194981, “Chemosensory protein regulates the behavioural response of Frankliniella intonsa and Frankliniella occidentalis to tomato zonate spot virus–Infected pepper (Capsicum annuum)” (PLOS Pathogens, 2023).
# Entries after “also recorded” stand apart in the source; their conditions may differ.
# Experiments:
# F. intonsa antennae = test: Electroantennogram (EAG) assay; parameters: species or system Frankliniella intonsa; conditions: excised F. intonsa antennae
# Procedure: The FintCSP1, FintCSP2, FintOBP, FintOR, FoccCSP, and enhanced green fluorescent protein (EGFP) coding sequences were obtained from GenBank under accession numbers MT199111, MT211602, OK067245, MT211603, AEP27186.1, and U55761.1, respectively. Primers were designed using Primer Premier 5.0, and the T7 promoter sequence (5′-[…]-3′) was added to the 5′ end of each primer (S1 Table). DNA fragments containing T7 promoter sequences were amplified by PCR using pEASY-T1/target gene or pUC-EGFP (preserved in the laboratory) plasmid DNA as template. Then, a double-stranded RNA (dsRNA) was produced from each target gene using the HiScribe T7 Quick High Yield RNA Synthesis Kit (New England Biolabs) according to the manufacturer’s instructions. Six hundred 2-day-old female F. intonsa or two hundred 2-day-old female F. occidentalis adults were anesthetized using CO2 and microinjected with 40 nL (3 μg/μL) dsRNA (dsFintCSP1 dsFintCSP2, dsFintOBP, dsFintOR or dsFoccCSP or dsEGFP) using a CellTram Oil microinjector (Eppendorf, Hamburg, Germany). The injected thrips were kept on broad beans in an artificial climate incubator as described above and used in subsequent RNAi experiments. Three biological replicates were conducted for each treatment with each dsRNA.
# At 24 h after dsRNA injection, the electrophysiological responses of F. intonsa antennae to six volatile components (i.e., m-cymene, cis-3-hexenal, (+)-2-carene, trans-2-hexenal, α-phellandrene, and α-humulene) or F. occidentalis antennae to cis-3-hexenal were recorded using EAG. Antennae of female adult thrips were cut off at the base, and the distal terminus was carefully removed. The tested compounds were dissolved in liquid paraffin, with pure liquid paraffin used as a negative control. An Ag-AgCl2 glass electrode and Kaissling electrode solution were used in the experiment according to Tian et al.. The base of the antenna was inserted into the glass capillary filled with electrode solution at the end of the reference electrode; the top of the antenna was connected to the glass capillary at the end of the recording electrode to ensure no bubbles in the glass capillary. After successful connection, the antennae were stimulated with each chemical in the following order: liquid paraffin, volatile compounds, and liquid paraffin. Stimulus time was 0.2 s with each stimulus at 40 s intervals. At least 10 antennae were tested for each volatile compound. The EAG values to volatile compounds were calculated using the following equation: absolute value of EAG reaction = reaction value of the tested sample—average value of two control measurements.
# [1] = target: recombinant wild-type FintCSP1 (Frankliniella intonsa, UniProt A0A891LVF4); test: Fluorescence (1-NPN) binding and competitive binding assay, wild-type FintCSP1
# Procedure: (§1) FintCSP1 and FoccCSP DNA were released from pEASY-T1/FintCSP1 and pEASY-T1/FoccCSP, respectively, by restriction digestion with BamHI and XhoI and cloned into the pET-30a vector (Invitrogen). The resulting construct was transformed into Transetta (DE3) Escherichia coli competent cells (Transgen). The production of recombinant FintCSP1 and FoccCSP was induced by addition of isopropyl-β-D-1-thiogalactopyranoside (IPTG, 0.2 mM) at 15°C and purified by Ni ion affinity chromatography (Sangon Biotech, Shanghai, China). The target protein was verified by 15% SDS-PAGE, and its concentration was determined with a BCA protein assay kit (Thermo Scientific, Rockford, IL, USA). The recombinant purified protein was stored at −20°C until use.
# (§2) The binding affinity of FintCSP1 and FoccCSP to the fluorescent probe N-phenyl-1-naphthylamine (1-NPN) was tested using a Spectramax M2 fluorescence spectrometer (Molecular Devices, USA) as reported previously. […] The 1-NPN/FintCSP1 or 1-NPN/FoccCSP mixture was excited at 280 nm, and the emission spectra were recorded at 415 nm. The binding constants (Kd) of FintCSP1 or FoccCSP to 1-NPN were calculated by Scatchard analysis using Prism 5 software (GraphPad, La Jolla, CA, USA). Assuming a protein activity of 100% and that the volatile compound binds to the protein in a 1:1 ratio at saturation, the dissociation constants (Ki) of FintCSP1 or FoccCSP for each ligand were calculated according to the IC50 (the concentration when the ligand replaces 50% of the probe) value of the volatile compounds. The Ki values were calculated according to the following equation: Ki = [IC50]/(1 + [1-NPN]/K1-NPN), where [1-NPN] is the free concentration of 1-NPN, and K1-NPN is the Kd of the 1-NPN/FintCSP1 or 1-NPN/FoccCSP.
# FintCSP1-Glu67Ala = FintCSP1-Glu67Ala (Frankliniella intonsa, UniProt A0A891LVF4, E67A); test: Fluorescence (1-NPN) binding and competitive binding assay, FintCSP1 mutant
# Procedure: as §2
# (§3) To verify the key amino acids of FintCSP1 and FoccCSP that bind to cis-3-hexenal, six amino acid residues of FintCSP1 were mutated (Lys26Ala, Phe27Ala, Thr28Ala, Glu67Ala, Ser84Ala, and the negative control residue Val132Ala) and nine amino acid residues of FoccCSP were mutated (Lys26Ala, Phe27Ala, Thr28Ala, Thr29Ala, Tyr31Ala, Asp64Ala, Glu67Ala, Gln87Ala, and the negative control residue Val132Ala) with the Fast Mutagenesis System Kit (Transgen Biotech, Beijing, China) using the pET-30a/FintCSP1 and pET-30a/FoccCSP plasmid DNA as template, respectively. Specific primers were designed using Primer Premier 5.0 according to the instructions of the Fast Mutagenesis System Kit (S1 Table). After validation by sequencing, each recombinant variant protein was produced and purified as described above, and their binding affinity to cis-3-hexenal was measured as described above.
# FintCSP1-Lys26Ala = FintCSP1-Lys26Ala (Frankliniella intonsa, UniProt A0A891LVF4, K26A); test: as above
# Procedure: as §2, §3
# FintCSP1-Phe27Ala = FintCSP1-Phe27Ala (Frankliniella intonsa, UniProt A0A891LVF4, F27A); test: as above
# Procedure: as §2, §3
# FintCSP1-Thr28Ala = FintCSP1-Thr28Ala (Frankliniella intonsa, UniProt A0A891LVF4, T28A); test: as above
# Procedure: as §2, §3
# FintCSP1-Ser84Ala = FintCSP1-Ser84Ala (Frankliniella intonsa, UniProt A0A891LVF4, S84A); test: as above
# Procedure: (§4) The binding affinity of FintCSP1 and FoccCSP to the fluorescent probe N-phenyl-1-naphthylamine (1-NPN) was tested using a Spectramax M2 fluorescence spectrometer (Molecular Devices, USA) as reported previously. Volatile compounds and 1-NPN were first dissolved to a concentration of 1 mM in HPLC-grade methanol and dissolved to their indicated final concentration (2–20 μM) to titrate 2 μM protein solutions resuspended in 50 mM Tris-HCl (pH 7.4). The 1-NPN/FintCSP1 or 1-NPN/FoccCSP mixture was excited at 280 nm, and the emission spectra were recorded at 415 nm. The binding constants (Kd) of FintCSP1 or FoccCSP to 1-NPN were calculated by Scatchard analysis using Prism 5 software (GraphPad, La Jolla, CA, USA). Assuming a protein activity of 100% and that the volatile compound binds to the protein in a 1:1 ratio at saturation, the dissociation constants (Ki) of FintCSP1 or FoccCSP for each ligand were calculated according to the IC50 (the concentration when the ligand replaces 50% of the probe) value of the volatile compounds. The Ki values were calculated according to the following equation: Ki = [IC50]/(1 + [1-NPN]/K1-NPN), where [1-NPN] is the free concentration of 1-NPN, and K1-NPN is the Kd of the 1-NPN/FintCSP1 or 1-NPN/FoccCSP.
# as §3, with “Specific primers were designed using Primer Premier 5.0 according to the instructions of the Fast Mutagenesis System Kit (S1 Table).” left out
# FintCSP1-Val132Ala = FintCSP1-Val132Ala (Frankliniella intonsa, UniProt A0A891LVF4, V132A); test: Fluorescence (1-NPN) binding and competitive binding assay, FintCSP1 mutant (negative control residue)
# Procedure: as §4
# as §3, with “Specific primers were designed using Primer Premier 5.0 according to the instructions of the Fast Mutagenesis System Kit (S1 Table).” left out
# [2] = target: recombinant wild-type FoccCSP (Frankliniella occidentalis, UniProt G4Y3X1); test: Fluorescence (1-NPN) binding and competitive binding assay, wild-type FoccCSP
# Procedure: as §1, §4
# FoccCSP-Gln87Ala = FoccCSP-Gln87Ala (Frankliniella occidentalis, UniProt G4Y3X1, Q87A); test: Fluorescence (1-NPN) binding and competitive binding assay, FoccCSP mutant
# Procedure: as §4, §3
# FoccCSP-Lys26Ala = FoccCSP-Lys26Ala (Frankliniella occidentalis, UniProt G4Y3X1, K26A); test: as above
# Procedure: as §4, §3
# FoccCSP-Tyr31Ala = FoccCSP-Tyr31Ala (Frankliniella occidentalis, UniProt G4Y3X1, Y31A); test: as above
# Procedure: as §4, §3
# FoccCSP-Asp64Ala = FoccCSP-Asp64Ala (Frankliniella occidentalis, UniProt G4Y3X1, D64A); test: as above
# Procedure: as §2, §3
# FoccCSP-Glu67Ala = FoccCSP-Glu67Ala (Frankliniella occidentalis, UniProt G4Y3X1, E67A); test: as above
# Procedure: as §2, §3
# FoccCSP-Phe27Ala = FoccCSP-Phe27Ala (Frankliniella occidentalis, UniProt G4Y3X1, F27A); test: as above
# Procedure: as §2, §3
# FoccCSP-Thr28Ala = FoccCSP-Thr28Ala (Frankliniella occidentalis, UniProt G4Y3X1, T28A); test: as above
# Procedure: as §2, §3
# FoccCSP-Thr29Ala = FoccCSP-Thr29Ala (Frankliniella occidentalis, UniProt G4Y3X1, T29A); test: as above
# Procedure: as §2, §3
# FoccCSP-Val132Ala = FoccCSP-Val132Ala (Frankliniella occidentalis, UniProt G4Y3X1, V132A); test: Fluorescence (1-NPN) binding and competitive binding assay, FoccCSP mutant (negative control residue)
# Procedure: as §4, §3
# F. intonsa = test: Y-tube olfactometer preference test; type: in vivo, Frankliniella intonsa; conditions: volatile compound vs liquid paraffin control; n = 60
# Procedure: F. intonsa and F. occidentalis preference tests of plant volatile cues were performed using a glass Y-tube olfactometer according to the method described by Wang et al. (2014) with minor modifications. A Y-shaped tube (1-cm inner diameter) consisted of a central tube (10 cm in length) and two arms (10 cm in length, offset by 60°) connected to two different glass odor bottles. One glass odor bottle was 50 cm in height, with a 10-cm inner diameter that contained pepper plants (14-day post-viral infection); the other glass odor bottle was 5 cm in height, with a 3-cm inner diameter for plant VOCs. The airflow in the olfactometer (200 mL/min) was filtered through activated carbon and calibrated using a flow meter at the end of each arm. To remove all visual cues, the Y-tube was positioned horizontally in a black airtight cubic box (90 cm × 60 cm × 40 cm). The tested odor sources (pepper plant VOCs) were enclosed in the odor bottles 5 min prior to each test to allow the odors to fill the arms. Thrips (2-day-old, starved for 1 h) were individually placed in the central tube and allowed to choose between the two arms. When the thrips had climbed over 2/3 of the side arm and stayed there for more than 30 s, it was considered to have made a selection. If the thrips had not made a choice after being placed in the straight arm for 5 min, the insect behaviour was scored as “no selection,” and it was not counted in the total data. The direction of the Y-tube arms and the silicone tubes were adjusted after five tested thrips to eliminate the influence of position. The Y-tube was replaced after 10 tested thrips to eliminate the possible influence of existing odors on thrips behaviour. Each treatment consisted of 20 thrips, with three replicates per treatment.
# The FintCSP1, FintCSP2, FintOBP, FintOR, FoccCSP, and enhanced green fluorescent protein (EGFP) coding sequences were obtained from GenBank under accession numbers MT199111, MT211602, OK067245, MT211603, AEP27186.1, and U55761.1, respectively. Primers were designed using Primer Premier 5.0, and the T7 promoter sequence (5′-[…]-3′) was added to the 5′ end of each primer (S1 Table). DNA fragments containing T7 promoter sequences were amplified by PCR using pEASY-T1/target gene or pUC-EGFP (preserved in the laboratory) plasmid DNA as template. Then, a double-stranded RNA (dsRNA) was produced from each target gene using the HiScribe T7 Quick High Yield RNA Synthesis Kit (New England Biolabs) according to the manufacturer’s instructions. […]
# Chain of recombinant wild-type FintCSP1 (A0A891LVF4 entry or part of it): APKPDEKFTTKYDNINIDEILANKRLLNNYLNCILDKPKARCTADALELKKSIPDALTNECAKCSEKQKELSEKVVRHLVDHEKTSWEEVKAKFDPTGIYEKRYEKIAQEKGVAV
# Chain of FoccCSP-Val132Ala (G4Y3X1 entry or part of it V132A): as the sequence (A0A891LVF4 entry or part of it) above, with D5E, I15V, A44N, A62M, V80A, D81E, H82K, T85E, Q109K, V113A counted along it
# Chain of FintCSP1-Ser84Ala (A0A891LVF4 entry or part of it S84A): as the sequence (A0A891LVF4 entry or part of it) above, with S65A counted along it
# Chain of FoccCSP-Gln87Ala (G4Y3X1 entry or part of it Q87A): as the sequence (A0A891LVF4 entry or part of it) above, with D5E, I15V, A44N, A62M, Q68A, V80A, D81E, H82K, T85E, Q109K counted along it
# Chain of FoccCSP-Tyr31Ala (G4Y3X1 entry or part of it Y31A): as the sequence (A0A891LVF4 entry or part of it) above, with D5E, Y12A, I15V, A44N, A62M, V80A, D81E, H82K, T85E, Q109K counted along it
# Chain of FoccCSP-Phe27Ala (G4Y3X1 entry or part of it F27A): as the sequence (A0A891LVF4 entry or part of it) above, with D5E, F8A, I15V, A44N, A62M, V80A, D81E, H82K, T85E, Q109K counted along it
# Chain of FintCSP1-Phe27Ala (A0A891LVF4 entry or part of it F27A): as the sequence (A0A891LVF4 entry or part of it) above, with F8A counted along it
# Chain of FoccCSP-Thr28Ala (G4Y3X1 entry or part of it T28A): as the sequence (A0A891LVF4 entry or part of it) above, with D5E, T9A, I15V, A44N, A62M, V80A, D81E, H82K, T85E, Q109K counted along it
# Chain of FoccCSP-Lys26Ala (G4Y3X1 entry or part of it K26A): as the sequence (A0A891LVF4 entry or part of it) above, with D5E, K7A, I15V, A44N, A62M, V80A, D81E, H82K, T85E, Q109K counted along it
# Chain of FintCSP1-Glu67Ala (A0A891LVF4 entry or part of it E67A): as the sequence (A0A891LVF4 entry or part of it) above, with E48A counted along it
# Chain of FoccCSP-Glu67Ala (G4Y3X1 entry or part of it E67A): as the sequence (A0A891LVF4 entry or part of it) above, with D5E, I15V, A44N, E48A, A62M, V80A, D81E, H82K, T85E, Q109K counted along it
# Chain of FintCSP1-Val132Ala (A0A891LVF4 entry or part of it V132A): as the sequence (A0A891LVF4 entry or part of it) above, with V113A counted along it
# Chain of FintCSP1-Thr28Ala (A0A891LVF4 entry or part of it T28A): as the sequence (A0A891LVF4 entry or part of it) above, with T9A counted along it
# Chain of recombinant wild-type FoccCSP (G4Y3X1 entry or part of it): as the sequence (A0A891LVF4 entry or part of it) above, with D5E, I15V, A44N, A62M, V80A, D81E, H82K, T85E, Q109K counted along it
# Chain of FoccCSP-Asp64Ala (G4Y3X1 entry or part of it D64A): as the sequence (A0A891LVF4 entry or part of it) above, with D5E, I15V, A44N, D45A, A62M, V80A, D81E, H82K, T85E, Q109K counted along it
# Chain of FoccCSP-Thr29Ala (G4Y3X1 entry or part of it T29A): as the sequence (A0A891LVF4 entry or part of it) above, with D5E, T10A, I15V, A44N, A62M, V80A, D81E, H82K, T85E, Q109K counted along it
# Chain of FintCSP1-Lys26Ala (A0A891LVF4 entry or part of it K26A): as the sequence (A0A891LVF4 entry or part of it) above, with K7A counted along it
compound,measurement,setting,value
CC1=CC[C@H](C(C)C)C=C1 (racemic) [α-phellandrene],EAG peak amplitude,F. intonsa antennae; 10 mg/L in liquid paraffin,–0.018 mV
"c1ccc(Nc2cccc3ccccc23)cc1 [1-NPN, N-phenyl-1-naphthylamine, reference compound]",Kd,[1],6.07 ± 0.4 µM
same,Kd,FintCSP1-Glu67Ala,4.5 ± 0.61 µM
same,Kd,FintCSP1-Lys26Ala,3.3 ± 0.39 µM
same,Kd,FintCSP1-Phe27Ala,4.38 ± 0.49 µM
same,Kd,FintCSP1-Thr28Ala,3.85 ± 0.41 µM
same,Kd,FintCSP1-Ser84Ala,3.48 ± 0.33 µM
same,Kd,FintCSP1-Val132Ala,6.77 ± 0.36 µM
same,Kd,[2],6.36 ± 0.51 µM
same,Kd,FoccCSP-Gln87Ala,20.3 ± 2.25 µM
same,Kd,FoccCSP-Lys26Ala,17.4 ± 1.32 µM
same,Kd,FoccCSP-Tyr31Ala,9.79 ± 0.87 µM
same,Kd,FoccCSP-Asp64Ala,31 ± 4.55 µM
same,Kd,FoccCSP-Glu67Ala,15.7 ± 2.3 µM
same,Kd,FoccCSP-Phe27Ala,7.09 ± 0.39 µM
same,Kd,FoccCSP-Thr28Ala,19.9 ± 2.43 µM
same,Kd,FoccCSP-Thr29Ala,15.5 ± 1.74 µM
same,Kd,FoccCSP-Val132Ala,7.26 ± 0.66 µM
C/C1=C\CC/C(C)=C/CC(C)(C)/C=C/C1 [α-humulene],EAG peak amplitude,F. intonsa antennae; 1 mg/L in liquid paraffin,–0.024 mV
Cc1cccc(C(C)C)c1 [m-cymene],EAG peak amplitude,F. intonsa antennae; 10 mg/L in liquid paraffin,approximately –0.034 mV
same,preference of F. intonsa in Y-tube olfactometer (in words),F. intonsa,"appeared to repel F. intonsa, but this result was not statistically significant"
CCC/C=C/C=O [trans-2-hexenal],IC50,[1],> 100 µM
same,Ki,[1],> 100 µM
same,binding affinity to FintCSP1 (in words),"[1]; wild-type FintCSP1, competitive fluorescence binding assay, classes of Ki",no FintCSP1 binding; also recorded: could not bind
same,EAG peak amplitude,F. intonsa antennae; 1 mg/L in liquid paraffin,–0.024 mV
"CC1=CC2C(CC1)C2(C)C (single isomer, unassigned; (+)) [(+)-2-carene]",EAG peak amplitude,F. intonsa antennae; 1 mg/L in liquid paraffin,–0.016 mV
